Laboratory results from patent US20150352108A1, “AMINO-PYRIMIDINE COMPOUNDS AS INHIBITORS OF TBK1 AND/OR IKK EPSILON” (Alzheimer's Institute of America, priority 2009, published 2015).
Like-named read-outs stand apart in the source and are kept apart here.

Legend:
IKKε = biological target: T1, IKKε (Homo sapiens, UniProt Q14164); experiment: In-vitro IKKε kinase assay ([γ33]ATP filter-plate); assay type: biochemical
T1 construct: His-tag; made in house; host or cells: Sf9 insect cells
T1 sequence (Q14164 1-716): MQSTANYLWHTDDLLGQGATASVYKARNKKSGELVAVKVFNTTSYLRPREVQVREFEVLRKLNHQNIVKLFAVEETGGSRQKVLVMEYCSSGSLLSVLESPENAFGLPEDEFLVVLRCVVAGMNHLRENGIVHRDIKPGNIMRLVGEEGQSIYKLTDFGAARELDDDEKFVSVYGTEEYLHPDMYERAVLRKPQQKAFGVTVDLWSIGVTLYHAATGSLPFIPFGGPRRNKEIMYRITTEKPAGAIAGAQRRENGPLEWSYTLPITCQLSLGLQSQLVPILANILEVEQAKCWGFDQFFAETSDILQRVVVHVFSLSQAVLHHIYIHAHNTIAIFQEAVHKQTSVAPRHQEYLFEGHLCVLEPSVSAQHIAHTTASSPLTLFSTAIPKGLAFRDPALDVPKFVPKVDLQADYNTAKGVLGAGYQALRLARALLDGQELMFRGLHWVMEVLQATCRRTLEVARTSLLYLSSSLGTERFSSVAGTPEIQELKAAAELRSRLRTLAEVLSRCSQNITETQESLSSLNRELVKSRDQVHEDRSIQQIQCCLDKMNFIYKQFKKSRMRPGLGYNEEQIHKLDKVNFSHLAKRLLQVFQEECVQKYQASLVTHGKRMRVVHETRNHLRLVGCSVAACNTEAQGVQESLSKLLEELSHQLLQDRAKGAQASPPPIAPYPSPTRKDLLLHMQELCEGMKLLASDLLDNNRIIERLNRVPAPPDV
Method in brief: (§1)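 His-tagged IKKε and TBK1 from Sf9 cells were assayed with myelin basic protein or casein and [γ33]ATP at 2×Km ATP (32 μM for IKKε, 60 μM for TBK1). Enzyme was 0.1 or 0.015 μg/ml for IKKε and 0.1 or 0.02 μg/ml for TBK1 (normal/sensitized). Reactions ran 30-45 min, were filter-captured, scintillation-counted, and normalized to DMSO after background subtraction.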

[1] = system: IKKε-mediated phosphorylation of IRF3; experiment: In-situ phosphorylation of IRF3 (pIRF3 Ser396 ELISA) in HEK293T cells cotransfected with IRF3 and IKKε; assay type: cell-based; details: Homo sapiens, HEK-293T
Method in brief: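 For the IRF3 ELISA, HEK293T cells cotransfected with IRF3 and IKKε were replated at 20,000/well and treated 20 h. Phospho-Ser396 IRF3 was measured by ELISA and normalised to DMSO, with viability checked by CellTiter-Glo. For IRF7, cells transfected with IRF7 and TBK1 were treated overnight, and pSer477/Ser479 IRF7 was detected by Western blot.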

TBK1 = biological target: T2, TBK1 (Homo sapiens, UniProt Q9UHD2); experiment: In-vitro TBK1 kinase assay ([γ33]ATP filter-plate); assay type: biochemical
T2 construct: His-tag; made in house; host or cells: Sf9 insect cells
T2 sequence (Q9UHD2 1-729): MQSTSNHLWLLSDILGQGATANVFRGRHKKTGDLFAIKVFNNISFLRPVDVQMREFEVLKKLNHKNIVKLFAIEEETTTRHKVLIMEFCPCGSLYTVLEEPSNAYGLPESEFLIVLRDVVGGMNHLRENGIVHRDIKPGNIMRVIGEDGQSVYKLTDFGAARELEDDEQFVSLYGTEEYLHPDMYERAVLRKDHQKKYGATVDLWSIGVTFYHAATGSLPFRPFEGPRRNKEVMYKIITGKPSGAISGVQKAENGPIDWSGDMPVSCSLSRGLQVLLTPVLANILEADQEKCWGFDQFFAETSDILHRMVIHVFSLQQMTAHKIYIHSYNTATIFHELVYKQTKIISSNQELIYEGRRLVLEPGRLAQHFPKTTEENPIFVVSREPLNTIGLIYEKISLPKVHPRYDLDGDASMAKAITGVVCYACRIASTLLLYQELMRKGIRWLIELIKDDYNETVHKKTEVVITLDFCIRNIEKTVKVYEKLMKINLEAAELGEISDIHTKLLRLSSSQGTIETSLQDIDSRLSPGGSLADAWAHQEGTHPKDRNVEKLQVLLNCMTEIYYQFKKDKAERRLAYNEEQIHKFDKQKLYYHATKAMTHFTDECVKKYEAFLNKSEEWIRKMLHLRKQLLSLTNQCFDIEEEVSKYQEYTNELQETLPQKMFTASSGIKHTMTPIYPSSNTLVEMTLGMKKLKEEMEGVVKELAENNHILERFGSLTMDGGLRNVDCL
Method in brief: as §1

[2] = text bins, read-out: IC50 for inhibition of the kinase activity of IKKε
[3] = HEK293T cells, 20 hours, text bins, read-out: IC50 for inhibition of the in-situ IKKε-mediated phosphorylation of IRF3
[4] = text bins, read-out: IC50 for inhibition of the kinase activity of TBK1
[5] = HEK293T cells in culture, Table 3, read-out: pIRF3 ELISA IC50

SMILES	IC50 (IKKε; [2]) [nM]	IC50 [1, 3] [nM]	IC50 (TBK1; [4]) [nM]	IC50 (IKKε; Table 3, read-out: IKKε IC50) [nM]	IC50 [1, 5] [nM]	IC50 (TBK1; Table 3, read-out: TBK1 IC50) [nM]
COc1cc(Nc2nccc(-c3ccc(OC4CCOCC4)c(C#N)c3)n2)ccc1N1CCOCC1 [Example 73, 5-(2-{[3-methoxy-4-(morpholin-4-yl)phenyl]amino}pyrimidin-4-yl)-2-(tetrahydro-2H-pyran-4-yloxy)benzonitrile]	< 5	< 100	< 10			
COc1cc(Nc2nccc(-c3ccc(OC4CCOCC4)c(C#N)c3)n2)ccc1CN1C[C@@H](C)O[C@@H](C)C1 [compound 480, 5-{2-[(4-{[(2R,6S)-2,6-Dimethylmorpholin-4-yl]methyl}-3-methoxyphenyl)amino]pyrimidin-4-yl}-2-(tetrahydro-2H-pyran-4-yloxy)benzonitrile]	< 5	< 100	< 10			
COc1cc(Nc2nccc(-c3ccc(OC4CCOCC4)c(C#N)c3)n2)ccc1OCCCN1CCOCC1 [Example 31, 5-[2-({3-methoxy-4-[3-(morpholin-4-tl)propoxy]phenyl}amino)pyrimidin-4-yl]-2-(tetrahydro-2H-pyran-4-yloxy)benzonitrile]	< 5	< 100	< 10			
COc1cc(Nc2nccc(-c3ccc(OC4CCOCC4)c(C#N)c3)n2)ccc1C(=O)N1CCCC1 [compound 613, 5-(2-{[3-Methoxy-4-(pyrrolidin-1-ylcarbonyl)phenyl]amino}pyrimidin-4-yl)-2-(tetrahydro-2H-pyran-4-yloxy)benzonitrile]	< 5	< 100	< 10	0.8	19.9	0.4
CC1(COc2ccc(-c3ccnc(Nc4ccc(N5CCOCC5)cc4)n3)cc2C#N)COC1 [compound 444, 2-[(3-Methyloxetan-3-yl)methoxy]-5-(2-{[4-(morpholin-4-yl)phenyl]amino}pyrimidin-4-yl)benzonitrile]	< 5	< 100	< 10			
N#Cc1cc(-c2ccnc(Nc3ccc(F)c(OCCCN4CCOCC4)c3)n2)ccc1OC1CCOCC1 [compound 519, 5-[2-({4-Fluoro-3-[3-(morpholin-4-yl)propoxy]phenyl}amino)pyrimidin-4-yl]-2-(tetrahydro-2H-pyran-4-yloxy)benzonitrile]	< 5	< 100	< 10			
CN(C)S(=O)(=O)Cc1ccc(Nc2nccc(-c3ccc(OC4CCOCC4)c(C#N)c3)n2)cc1 [compound 401, 1-[4-({4-[3-Cyano-4-(tetrahydro-2H-pyran-4-yloxy)phenyl]pyrimidin-2-yl}amino)phenyl]-N,N-dimethylmethane-sulfonamide]	< 5	< 100	< 10			
N#Cc1cc(-c2ccnc(Nc3ccc(Cn4ccnc4)cc3)n2)ccc1OC1CCOCC1 [compound 500, 5-(2-{[4-(1H-imidazol-1-ylmethyl)phenyl]amino}pyrimidin-4-yl)-2-(tetrahydro-2H-pyran-4-yloxy)benzonitrile]	< 5	< 100	< 10	2	91.8	0.3
N#Cc1cc(-c2ccnc(Nc3cccc(CN4CCN(CCO)CC4)c3)n2)ccc1OC1CCOCC1 [compound 625, 5-{2-[(3-{[4-(2-Hydroxyethyl)piperazin-1-yl]methyl}phenyl)amino]pyrimidin-4-yl}-2-(tetrahydro-2H-pyran-4-yloxy)benzonitrile]	< 5	< 100	< 10	2	16.9	0.4
Cc1ccc(Nc2nccc(-c3ccc(OC4CCOCC4)c(C#N)c3)n2)cc1OCCN1CCNCC1 [compound 533, 5-[2-({4-Methyl-3-[2-(piperazin-1-yl)ethoxy]phenyl}amino)pyrimidin-4-yl]-2-(tetrahydro-2H-pyran-4-yloxy)benzonitrile]	< 5	< 100	< 10			
